One test relates to VEGF-A. The test can be described thus: Western blot of VEGF-A protein in retina of OIR mice (PBS control group and FUT-175 treated group). It is filed as in vivo, mouse. The following applies: retina total protein.
Test [1] relates to retinal neovascularization (视网膜新生血管). The test can be described thus: Oxygen-induced retinopathy (OIR) mouse model; retinal flat mount with FITC-conjugated isolectin-B4, fluorescence microscopy of retinal neovascularization at P17. It is filed as in vivo.

`N=C(N)c1ccc2cc(OC(=O)c3ccc(N=C(N)N)cc3)ccc2c1` [甲磺酸萘莫司他]: in the test on VEGF-A (C3aR and C5aR knockout), the VEGF-A expression change entry is listed as “无检测到VEGF-A的表达变化”. Besides, the VEGF-A protein expression entry with VEGF-A (C57BL/6J) is reported as “可调节VEGF-A的蛋白表达”. Besides, the “change in retinal neovascularization growth after injection” value in test [1] (C3aR-/- and C5aR-/- mice, same OIR treatment) was “变化并不明显”. Further, the fundus vessel growth entry in test [1] (C57BL/6J mice, OIR (75% oxygen from P7 for 5 d), 50 mg/kg i.p. daily from P12, evaluated at P17) is reported as “血管生长趋于正常”. Further, the “inhibition of RNV growth” value in test [1] (C57BL/6J mice, OIR (75% oxygen from P7 for 5 d), 50 mg/kg i.p. daily from P12, evaluated at P17, fluorescence microscopy) is recorded as “能够明显抑制RNV的生长”.

The values are drawn from CN102743371A, “一种治疗视网膜新生血管性疾病的药物” (SPECIALTY OF OPHTHALMOLOGY RESEARCH INSTITUTE SHANDONG PROV, priority 2012, dated 2012).
